Usually IC50 stands for the concentration needed to halve the response being measured.

In patent US11759462B2, “Spirocyclic compounds as tryptophan hydroxylase inhibitors” (priority 2013, dated 2023) one finds IC50 data, which are given here for 21 compounds.

Each structure is given as a SMILES string.

This assay has as its target T1, Recombinant human TPH1 (MBP tagged) (Homo sapiens, UniProt P17752).
T1 construct: cloning full length human TPH1 cDNA in to a bacterial pMAL-c5E expression vector; made in house; host or cells: E. coli BL21 (DE3)
T1 sequence (P17752 1-444): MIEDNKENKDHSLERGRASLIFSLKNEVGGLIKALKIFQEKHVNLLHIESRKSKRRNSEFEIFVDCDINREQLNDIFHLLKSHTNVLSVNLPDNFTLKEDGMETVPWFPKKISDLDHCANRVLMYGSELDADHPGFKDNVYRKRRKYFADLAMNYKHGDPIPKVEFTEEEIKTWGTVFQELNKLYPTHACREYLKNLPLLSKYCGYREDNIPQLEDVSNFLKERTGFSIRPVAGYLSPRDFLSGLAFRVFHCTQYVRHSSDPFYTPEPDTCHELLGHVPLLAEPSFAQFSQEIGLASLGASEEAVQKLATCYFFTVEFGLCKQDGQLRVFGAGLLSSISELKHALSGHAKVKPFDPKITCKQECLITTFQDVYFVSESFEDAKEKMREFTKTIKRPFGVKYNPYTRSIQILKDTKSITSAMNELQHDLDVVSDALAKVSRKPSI
The assay is described as follows: TPH1 in vitro inhibition assay (kinetic fluorescence). In kind it is biochemical. Conditions: read-out: TPH1 Range (TPH1 inhibition IC50). The method in brief:
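Final mix: 15 nM MBP-TPH1, 30 μM Trp, 36 μM 6-methyltetrahydropterin, 25 μM ferrous ammonium sulfate, 50 mM MES pH 7.1, 1% DMSO, room temperature.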
For `Cc1ccn(-c2ccc(-c3ccc(C(=O)O)cc3)cc2[C@@H](Oc2cc(N3CCC4(CC3)CN[C@H](C(=O)O)C4)nc(N)n2)C(F)(F)F)n1` [Example 19g, (S)-8-(2-amino-6-((R)-1-(4′-carboxy-4-(3-methyl-1H-pyrazol-1-yl)-[1,1′-biphenyl]-3-yl)-2,2,2-trifluoroethoxy)pyrimidin-4-yl)-2,8-diazaspiro[4.5] decane-3-carboxylic acid], the IC50 is below 50 nM.
For `Cc1ccn(-c2ccc(-c3cccc(/C=C/C(=O)O)c3)cc2[C@@H](Oc2cc(N3CCC4(CC3)CN[C@H](C(=O)O)C4)nc(N)n2)C(F)(F)F)n1` [Example 19h, (S)-8-(2-amino-6-((R)-1-(3′-((E)-2-carboxyvinyl)-4-(3-methyl-1H-pyrazol-1-yl)-[1,1′-biphenyl]-3-yl)-2,2,2-trifluoroethoxy)pyrimidin-4-yl)-2,8-diazaspiro[4.5] decane-3-carboxylic acid], the IC50 was below 50 nM.
As for `Cc1ccn(-c2ccc(-c3ccc(/C=C/C(=O)O)cc3)cc2[C@@H](Oc2cc(N3CCC4(CC3)CN[C@H](C(=O)O)C4)nc(N)n2)C(F)(F)F)n1` [Example 19i, (S)-8-(2-amino-6-((R)-1-(4′-((E)-2-carboxyvinyl)-4-(3-methyl-1H-pyrazol-1-yl)-[1,1′-biphenyl]-3-yl)-2,2,2-trifluoroethoxy)pyrimidin-4-yl)-2,8-diazaspiro[4.5] decane-3-carboxylic acid], the IC50 is below 50 nM.
With `Cc1ccn(-c2ccc(-c3cccc(CCC(=O)O)c3)cc2[C@@H](Oc2cc(N3CCC4(CC3)CN[C@H](C(=O)O)C4)nc(N)n2)C(F)(F)F)n1` [Example 19j, (S)-8-(2-amino-6-((R)-1-(3′-(2-carboxyethyl)-4-(3-methyl-1H-pyrazol-1-yl)-[1,1′-biphenyl]-3-yl)-2,2,2-trifluoroethoxy)pyrimidin-4-yl)-2,8-diazaspiro[4.5] decane-3-carboxylic acid], the IC50 is below 50 nM.
As to `Cc1ccn(-c2ccc(-c3ccc(CCC(=O)O)cc3)cc2[C@@H](Oc2cc(N3CCC4(CC3)CN[C@H](C(=O)O)C4)nc(N)n2)C(F)(F)F)n1` [Example 19k, (S)-8-(2-amino-6-((R)-1-(4′-(2-carboxyethyl)-4-(3-methyl-1H-pyrazol-1-yl)-[1,1′-biphenyl]-3-yl)-2,2,2-trifluoroethoxy)pyrimidin-4-yl)-2,8-diazaspiro[4.5] decane-3-carboxylic acid], the IC50 is below 50 nM.
Next, `Cc1ccn(-c2ccc(-c3ccc(CO)c(C)c3)cc2[C@@H](Oc2cc(N3CCC4(CC3)CN[C@H](C(=O)O)C4)nc(N)n2)C(F)(F)F)n1` [Example 19l, (S)-8-(2-amino-6-((R)-2,2,2-trifluoro-1-(4′-(hydroxymethyl)-3′-methyl-4-(3-methyl-1H-pyrazol-1-yl)-[1,1′-biphenyl]-3-yl)ethoxy)pyrimidin-4-yl)-2,8-diazaspiro[4.5]decane-3-carboxylic acid]: below 50 nM; `Cc1ccn(-c2ccc(-c3ccc(C)c(CO)c3)cc2[C@@H](Oc2cc(N3CCC4(CC3)CN[C@H](C(=O)O)C4)nc(N)n2)C(F)(F)F)n1` [Example 19m, (S)-8-(2-amino-6-((R)-2,2,2-trifluoro-1-(3′-(hydroxymethyl)-4′-methyl-4-(3-methyl-1H-pyrazol-1-yl)-[1,1′-biphenyl]-3-yl)ethoxy)pyrimidin-4-yl)-2,8-diazaspiro[4.5]decane-3-carboxylic acid]: below 50 nM.
As to `Cc1ccn(-c2ccc(-c3ccccc3)cc2[C@@H](Oc2cc(N3CCC4(CC3)CN[C@H](C(=O)O)C4)nc(N)n2)C(F)(F)F)n1` [Example 19n, (S)-8-(2-amino-6-((R)-2,2,2-trifluoro-1-(4-(3-methyl-1H-pyrazol-1-yl)-[1,1′-biphenyl]-3-yl)ethoxy)pyrimidin-4-yl)-2,8-diazaspiro[4.5]decane-3-carboxylic acid], the IC50 was below 50 nM.
Regarding `Cc1ccn(-c2ccc(-c3ccc(F)c(F)c3)cc2[C@@H](Oc2cc(N3CCC4(CC3)CN[C@H](C(=O)O)C4)nc(N)n2)C(F)(F)F)n1` [Example 19o, (S)-8-(2-amino-6-((R)-1-(3′,4′-difluoro-4-(3-methyl-1H-pyrazol-1-yl)-[1,1′-biphenyl]-3-yl)-2,2,2-trifluoroethoxy)pyrimidin-4-yl)-2,8-diazaspiro[4.5] decane-3-carboxylic acid], the IC50 was below 50 nM.
As to `Cc1ccn(-c2ccc(-c3ccc(Cl)c(Cl)c3)cc2[C@@H](Oc2cc(N3CCC4(CC3)CN[C@H](C(=O)O)C4)nc(N)n2)C(F)(F)F)n1` [Example 19p, (S)-8-(2-amino-6-((R)-1-(3′,4′-dichloro-4-(3-methyl-1H-pyrazol-1-yl)-[1,1′-biphenyl]-3-yl)-2,2,2-trifluoroethoxy)pyrimidin-4-yl)-2,8-diazaspiro[4.5] decane-3-carboxylic acid], the IC50 was below 50 nM.
As to `Cc1ccn(-c2ccc(-c3ccc(Cl)cc3)cc2[C@@H](Oc2cc(N3CCC4(CC3)CN[C@H](C(=O)O)C4)nc(N)n2)C(F)(F)F)n1` [Example 19q, (S)-8-(2-amino-6-((R)-1-(4′-chloro-4-(3-methyl-1H-pyrazol-1-yl)-[1,1′-biphenyl]-3-yl)-2,2,2-trifluoroethoxy)pyrimidin-4-yl)-2,8-diazaspiro[4.5] decane-3-carboxylic acid], the IC50 is below 50 nM.
Regarding `Cc1ccn(-c2ccc(-c3ccc(CO)cc3)cc2[C@@H](Oc2cc(N3CCC4(CC3)CN[C@H](C(=O)O)C4)nc(N)n2)C(F)(F)F)n1` [Example 19r, (S)-8-(2-amino-6-((R)-2,2,2-trifluoro-1-(4′-(hydroxymethyl)-4-(3-methyl-1H-pyrazol-1-yl)-[1,1′-biphenyl]-3-yl)ethoxy)pyrimidin-4-yl)-2,8-diazaspiro[4.5]decane-3-carboxylic acid], the IC50 was below 50 nM.
The figure for `CCOC(=O)c1ccccc1-c1ccc(-n2ccc(C)n2)c([C@@H](Oc2cc(N3CCC4(CC3)CN[C@H](C(=O)O)C4)nc(N)n2)C(F)(F)F)c1` [Example 20, (S)-8-(2-amino-6-((R)-1-(2′-(ethoxycarbonyl)-4-(3-methyl-1H-pyrazol-1-yl)-[1,1′-biphenyl]-3-yl)-2,2,2-trifluoroethoxy)pyrimidin-4-yl)-2,8-diazaspiro[4.5]decane-3-carboxylic acid] is below 50 nM; for `CCOC(=O)c1ccc(-c2ccc(-n3ccc(C)n3)c([C@@H](Oc3cc(N4CCC5(CC4)CN[C@H](C(=O)O)C5)nc(N)n3)C(F)(F)F)c2)cc1` [Example 21, (S)-8-(2-amino-6-((R)-1-(4′-(ethoxycarbonyl)-4-(3-methyl-1H-pyrazol-1-yl)-[1,1′-biphenyl]-3-yl)-2,2,2-trifluoroethoxy)pyrimidin-4-yl)-2,8-diazaspiro[4.5]decane-3-carboxylic acid] it is below 50 nM.
For the compound `CCc1ccc(-n2ccc(C)n2)c([C@@H](Oc2cc(N3CCC4(CC3)CN[C@H](C(=O)O)C4)nc(N)n2)C(F)(F)F)c1` [Example 22a, (S)-8-(2-amino-6-((R)-1-(5-ethyl-2-(3-methyl-H-pyrazol-1-yl)phenyl)-2,2,2-trifluoroethoxy)pyrimidin-4-yl)-2,8-diazaspiro[4.5]decane-3-carboxylic acid], the IC50 was below 50 nM.
For the compound `CCCc1ccc(-n2ccc(C)n2)c([C@@H](Oc2cc(N3CCC4(CC3)CN[C@H](C(=O)O)C4)nc(N)n2)C(F)(F)F)c1` [Example 22b], the IC50 is below 50 nM.
Next, `CCOC(=O)c1ccc(-n2ccc(C)n2)c([C@@H](Oc2cc(N3CCC4(CC3)CN[C@H](C(=O)O)C4)nc(N)n2)C(F)(F)F)c1` [Example 23, (S)-8-(2-Amino-6-((R)-1-(5-(ethoxycarbonyl)-2-(3-methyl-1H-pyrazol-1-yl)phenyl)-2,2,2-trifluoroethoxy)pyrimidin-4-yl)-2,8-diazaspiro[4.5]decane-3-carboxylic acid]: below 50 nM; `Cc1ccn(-c2ccc(C(=O)O)cc2[C@@H](Oc2cc(N3CCC4(CC3)CN[C@H](C(=O)O)C4)nc(N)n2)C(F)(F)F)n1` [Example 24, (S)-8-(2-Amino-6-((R)-1-(5-carboxy-2-(3-methyl-H-pyrazol-1-yl)phenyl)-2,2,2-trifluoroethoxy)pyrimidin-4-yl)-2,8-diazaspiro[4.5]decane-3-carboxylic acid]: 50 to 300 nM.
The figure for `Cc1ccn(-c2cc(CO)ccc2[C@@H](Oc2cc(N3CCC4(CC3)CN[C@H](C(=O)O)C4)nc(N)n2)C(F)(F)F)n1` [Example 25, (S)-8-(2-Amino-6-((R)-2,2,2-trifluoro-1-(4-(hydroxymethyl)-2-(3-methyl-H-pyrazol-1-yl)phenyl)ethoxy)pyrimidin-4-yl)-2,8-diazaspiro[4.5]decane-3-carboxylic acid] is below 50 nM; for `Cc1ccn(-c2cc(CN(C)C)ccc2[C@@H](Oc2cc(N3CCC4(CC3)CN[C@H](C(=O)O)C4)nc(N)n2)C(F)(F)F)n1` [Example 26, (S)-8-(2-amino-6-((R)-1-(4-((dimethylamino)methyl)-2-(3-methyl-H-pyrazol-1-yl)phenyl)-2,2,2-trifluoroethoxy)pyrimidin-4-yl)-2,8-diazaspiro[4.5]decane-3-carboxylic acid] it is 3000 to 10000 nM.
Turning to `Cc1ccn(-c2cc(Br)ccc2[C@@H](Oc2cc(N3CCC4(CC3)CN[C@H](C(=O)O)C4)nc(C)n2)C(F)(F)F)n1` [Example 27, (S)-8-(6-((R)-1-(4-Bromo-2-(3-methyl-1H-pyrazol-1-yl)phenyl)-2,2,2-trifluoroethoxy)-2-methylpyrimidin-4-yl)-2,8-diazaspiro[4.5]decane-3-carboxylic acid], the IC50 was 50 to 300 nM.
